Measured values taken from patent publication US8865623B2, “Herbicidally active cyclic diones and derivatives thereof, processes for their preparation, compositions, and method of controlling weeds” (Syngenta Limited, priority 2009, dated 2014).

How the values were obtained:
Format in all cases: in vivo
[1] = system: Echinochloa crus-galli (ECHCG); assay: Pre-emergence herbicidal activity, glasshouse pot test; conditions: evaluated after 13 days; for pest or weed control at 250 g/ha: Echinochloa crus-galli, 312 h, Rate 250 g/ha, read-out: Pre-emergence activity ECHCG (100=total damage to plant; 0=no damage to plant)
Method in brief: (§1)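 Potted plants sprayed one day after sowing (pre-emergence) or after 8 days (post-emergence) with formulation in acetone/water (50:50) containing 0.5% Tween 20. Glasshouse at 24/16 °C, 14 h light, 65% humidity; damage scored after 13 days (0 none, 100 total).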

[2] = system: Avena fatua (AVEFA); assay: as above; conditions: evaluated after 13 days; for pest or weed control at 250 g/ha: Avena fatua, 312 h, Rate 250 g/ha, read-out: Pre-emergence activity AVEFA (100=total damage to plant; 0=no damage to plant)
Method in brief: as §1

[3] = system: Alopecurus myosuroides (ALOMY); assay: as above; conditions: evaluated after 13 days; for pest or weed control at 250 g/ha: Alopecurus myosuroides, 312 h, Rate 250 g/ha, read-out: Pre-emergence activity ALOMY (100=total damage to plant; 0=no damage to plant)
Method in brief: as §1

[4] = system: Lolium perenne (LOLPE); assay: as above; conditions: evaluated after 13 days; for pest or weed control at 250 g/ha: Lolium perenne, 312 h, Rate 250 g/ha, read-out: Pre-emergence activity LOLPE (100=total damage to plant; 0=no damage to plant)
Method in brief: as §1

[5] = system: Echinochloa crus-galli (ECHCG); assay: Post-emergence herbicidal activity, glasshouse pot test; conditions: rate 250 g/ha, evaluated after 13 days; for pest or weed control at 250 g/ha: Echinochloa crus-galli, 312 h, read-out: Post-emergence activity ECHCG (100=total damage to plant; 0=no damage to plant)
Method in brief: as §1

[6] = system: Avena fatua (AVEFA); assay: as above; conditions: rate 250 g/ha, evaluated after 13 days; for pest or weed control at 250 g/ha: Avena fatua, 312 h, read-out: Post-emergence activity AVEFA (100=total damage to plant; 0=no damage to plant)
Method in brief: as §1

[7] = system: Alopecurus myosuroides (ALOMY); assay: as above; conditions: rate 250 g/ha, evaluated after 13 days; for pest or weed control at 250 g/ha: Alopecurus myosuroides, 312 h, read-out: Post-emergence activity ALOMY (100=total damage to plant; 0=no damage to plant)
Method in brief: as §1

[8] = system: Lolium perenne (LOLPE); assay: as above; conditions: rate 250 g/ha, evaluated after 13 days; for pest or weed control at 250 g/ha: Lolium perenne, 312 h, read-out: Post-emergence activity LOLPE (100=total damage to plant; 0=no damage to plant)
Method in brief: as §1

Row | SMILES | pest or weed control at 250 g/ha ([1]; pre-emergence spray) [%] | pest or weed control at 250 g/ha ([2]; pre-emergence spray) [%] | pest or weed control at 250 g/ha ([3]; pre-emergence spray) [%] | pest or weed control at 250 g/ha ([4]; pre-emergence spray) [%] | pest or weed control at 250 g/ha ([5]; glasshouse) [%] | pest or weed control at 250 g/ha ([6]; glasshouse) [%] | pest or weed control at 250 g/ha ([7]; glasshouse) [%] | pest or weed control at 250 g/ha ([8]; glasshouse) [%] | other results
1 | CCc1ccc(Oc2ncc(Cl)cc2C(F)(F)F)cc1C1=C(O)[C@H]2CC[C@H](C2)C1=O [Example A-346] |  |  |  |  |  |  |  |  | pest or weed control at 250 g/ha ([1]; pre-emergence): 100%; pest or weed control at 250 g/ha ([2]; pre-emergence): 90%; pest or weed control at 250 g/ha ([3]; pre-emergence): 100%; pest or weed control at 250 g/ha ([4]; pre-emergence): 100%; pest or weed control at 250 g/ha [5]: 100%; pest or weed control at 250 g/ha [6]: 90%; pest or weed control at 250 g/ha [7]: 70%; pest or weed control at 250 g/ha [8]: 90%
2 | CCc1ccc(Oc2ccc(I)cn2)cc1C1=C(O)C(C)(C)OC(C)(C)C1=O [Example A-163] | 100 | 70 | 70 | 100 | 100 | 90 | 90 | 100 | 
3 | CCOC(=O)OC1=C(c2cc(Oc3ccc(C#N)cc3F)ccc2CC)C(=O)C(C)(C)OC1(C)C [Example P-5] |  |  |  |  |  |  |  |  | ECHCG damage to plant (100=total damage to plant; 0=no damage to plant) ([1]; pre-emergence, rate 250 g/ha): 100; AVEFA damage to plant (100=total damage to plant; 0=no damage to plant) ([2]; pre-emergence, rate 250 g/ha): 70; ALOMY damage to plant (100=total damage to plant; 0=no damage to plant) ([3]; pre-emergence, rate 250 g/ha): 100; LOLPE damage to plant (100=total damage to plant; 0=no damage to plant) ([4]; pre-emergence, rate 250 g/ha): 100; ECHCG damage to plant (100=total damage to plant; 0=no damage to plant) [5]: 100; AVEFA damage to plant (100=total damage to plant; 0=no damage to plant) [6]: 70; ALOMY damage to plant (100=total damage to plant; 0=no damage to plant) [7]: 80; LOLPE damage to plant (100=total damage to plant; 0=no damage to plant) [8]: 80
4 | CCc1ccc(Oc2ccc(C(F)(F)F)cn2)cc1C1=C(O)C(C)(C)OC(C)(C)C1=O [Example A-34] | 100 | 100 | 100 | 100 | 100 | 100 | 100 | 100 | 
5 | CCc1ccc(Oc2cnc3cc(Cl)ccc3n2)cc1C1=C(O)CC(C)(C)CC1=O [Example A-82] | 100 | 90 | 70 | 100 | 100 | 100 | 100 | 90 | 
6 | CCc1ccc(Oc2nc3ccc(Cl)cc3s2)cc1C1=C(O)C(C)(C)OC(C)(C)C1=O [Example A-106] | 90 | 20 | 60 | 100 | 90 | 50 | 90 | 80 | 
7 | CCc1ccc(Oc2ccc(C(F)(F)F)c(C#N)c2)cc1C1=C(O)[C@@H]2CC[C@](C)(C1=O)C2(C)C [Example A-323] | 100 | 80 | 70 | 100 | 90 | 80 | 60 | 70 | 
8 | CCc1ccc(Oc2ccc(C(F)(F)F)cc2[N+](=O)[O-])cc1C1=C(O)[C@@H]2CC[C@](C)(C1=O)C2(C)C [Example A-327] | 100 | 20 | 70 | 90 | 100 | 90 | 80 | 70 | 
9 | CCc1ccc(Oc2ccc(C#N)c(Cl)c2)cc1C1=C(O)[C@@H]2CC[C@](C)(C1=O)C2(C)C [Example A-313] | 100 | 70 | 80 | 100 | 100 | 90 | 90 | 80 | 
10 | CCc1ccc(Oc2ccc(Br)cc2)cc1C1=C(O)CC2(CCOCC2)CC1=O [Example A-37] | 100 | 70 | 70 | 80 | 100 | 100 | 100 | 90 | 
11 | CCc1ccc(Oc2cnc3ccccc3n2)cc1C1=C(O)CC2(CCOCC2)CC1=O [Example A-307] | 100 | 70 | 100 | 90 | 100 | 100 | 100 | 100 | 
12 | CCc1ccc(Oc2ccc(F)c(F)c2)cc1C1=C(O)C(C)(C)OC(C)(C)C1=O [Example A-177] | 60 | 0 | 0 | 30 | 70 | 20 | 0 | 40 | 
13 | CCc1ccc(Oc2ccc(C(F)(F)F)c(C#N)c2)cc1C1=C(O)C(C)(C)OC(C)(C)C1=O [Example A-210] | 60 | 10 | 30 | 20 | 100 | 90 | 90 | 100 | 
14 | CCc1ccc(Oc2ncc(Cl)cc2C(F)(F)F)cc1C1=C(O)[C@@H]2CC[C@](C)(C1=O)C2(C)C [Example A-329] | 100 | 90 | 90 | 100 | 100 | 90 | 80 | 70 | 
15 | CCc1ccc(Oc2nc3cc(Cl)ccc3s2)cc1C1=C(O)C(C)(C)OC(C)(C)C1=O [Example A-229] | 70 | 0 | 30 | 60 | 100 | 10 | 90 | 100 | 
16 | CCc1ccc(Oc2ccc(Cl)c(C)c2)cc1C1=C(O)C(C)(C)OC(C)(C)C1=O [Example A-184] | 50 | 0 | 10 | 50 | 30 | 0 | 20 | 30 | 
17 | CCc1ccc(Oc2ncc(C(F)(F)F)cc2C(F)(F)F)cc1C1=C(O)C(C)(C)OC(C)(C)C1=O [Example A-148] | 90 | 90 | 50 | 100 | 100 | 100 | 90 | 90 | 
18 | CCc1ccc(Oc2ccc(Br)cc2)cc1C1=C(O)[C@@H]2CC[C@](C)(C1=O)C2(C)C [Example A-234] | 100 | 40 | 70 | 90 | 100 | 90 | 80 | 80 | 
